# Experimental data taken from patent US12662479B2 (Foghorn Therapeutics Inc., priority 2020, dated 2026).
# Assays:
# HiBit-BRM fusion protein = biological target: T1, HiBit-BRM fusion protein (Homo sapiens, UniProt P51531); assay: HiBiT-BRM cell-based degradation assay (Nano-Glo HiBiT Lytic Detection, 24 h); settings: HeLa cells expressing HiBiT-BRM; for DC50: read-out: BRM HiBit Degradation IC50; for BRM HiBit Degradation Maximum measured: top dose 30 μM
# T1 construct: expressed in transfected cells
# T1 sequence (P51531 whole entry, the tested form may be a part): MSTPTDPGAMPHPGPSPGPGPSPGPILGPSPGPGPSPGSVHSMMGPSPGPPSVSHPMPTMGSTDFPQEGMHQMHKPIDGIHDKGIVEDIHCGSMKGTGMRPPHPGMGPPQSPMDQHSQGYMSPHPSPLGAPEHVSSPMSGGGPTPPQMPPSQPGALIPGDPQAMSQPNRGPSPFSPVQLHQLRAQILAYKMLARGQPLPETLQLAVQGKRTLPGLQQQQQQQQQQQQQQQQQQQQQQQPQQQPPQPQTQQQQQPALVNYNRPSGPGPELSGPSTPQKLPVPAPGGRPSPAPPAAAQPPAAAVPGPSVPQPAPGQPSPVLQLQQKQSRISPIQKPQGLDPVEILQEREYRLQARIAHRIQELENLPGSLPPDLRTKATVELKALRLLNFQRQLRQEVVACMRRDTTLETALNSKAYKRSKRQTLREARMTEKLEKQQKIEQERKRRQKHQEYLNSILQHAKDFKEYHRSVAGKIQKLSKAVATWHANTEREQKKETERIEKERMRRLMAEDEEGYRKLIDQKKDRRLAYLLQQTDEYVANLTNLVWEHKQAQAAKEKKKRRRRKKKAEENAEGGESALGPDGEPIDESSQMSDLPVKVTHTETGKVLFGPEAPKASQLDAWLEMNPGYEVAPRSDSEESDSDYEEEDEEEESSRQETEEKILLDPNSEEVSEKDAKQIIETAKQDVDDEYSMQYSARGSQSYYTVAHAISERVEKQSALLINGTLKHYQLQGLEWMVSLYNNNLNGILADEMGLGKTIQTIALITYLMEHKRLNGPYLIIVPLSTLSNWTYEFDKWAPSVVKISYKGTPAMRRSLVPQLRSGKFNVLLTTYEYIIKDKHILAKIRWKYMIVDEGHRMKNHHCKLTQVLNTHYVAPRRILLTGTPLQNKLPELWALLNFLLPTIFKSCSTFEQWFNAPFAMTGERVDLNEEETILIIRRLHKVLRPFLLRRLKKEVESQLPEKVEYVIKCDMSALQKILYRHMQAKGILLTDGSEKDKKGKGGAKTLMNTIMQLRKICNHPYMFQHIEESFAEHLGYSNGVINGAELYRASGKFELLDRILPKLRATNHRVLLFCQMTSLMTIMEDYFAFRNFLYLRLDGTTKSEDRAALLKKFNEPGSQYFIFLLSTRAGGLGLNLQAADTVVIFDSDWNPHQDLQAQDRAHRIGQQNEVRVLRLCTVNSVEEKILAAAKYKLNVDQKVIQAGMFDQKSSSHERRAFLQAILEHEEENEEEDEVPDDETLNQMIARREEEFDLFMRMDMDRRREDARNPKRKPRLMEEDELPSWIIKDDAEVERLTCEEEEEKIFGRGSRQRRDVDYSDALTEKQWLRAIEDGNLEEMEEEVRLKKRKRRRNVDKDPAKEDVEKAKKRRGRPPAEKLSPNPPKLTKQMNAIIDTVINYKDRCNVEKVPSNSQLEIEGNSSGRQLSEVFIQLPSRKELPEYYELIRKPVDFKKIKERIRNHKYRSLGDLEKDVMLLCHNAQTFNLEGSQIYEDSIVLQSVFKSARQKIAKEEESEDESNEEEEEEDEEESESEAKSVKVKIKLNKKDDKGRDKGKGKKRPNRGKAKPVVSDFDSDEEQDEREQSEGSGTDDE
# Outline: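 HeLa cells stably expressing HiBiT-BRM were dosed with compounds (10-point 3-fold dilutions, 30 μM final top dose, duplicate) for 24 h. HiBiT signal was read by lytic LgBiT complementation luminescence. Percent degradation was normalised to DMSO (high control) and 2 μM of a reference BRM/BRG1 degrader (low control).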
# [1] = biological target: T2, HiBit-BRG1 fusion protein (Homo sapiens, UniProt P51532); assay: HiBiT-BRG1 cell-based degradation assay (Nano-Glo HiBiT Lytic Detection, 24 h); settings: HeLa cells expressing HiBit-BRG1 and LgBit; for DC50: read-out: BRG1 HiBit Degradation IC50; for Dmax: HeLa, top dose 30 μM, read-out: BRG1 HiBit Degradation Maximum measured
# T2 construct: expressed in transfected cells
# T2 sequence (P51532 whole entry, the tested form may be a part): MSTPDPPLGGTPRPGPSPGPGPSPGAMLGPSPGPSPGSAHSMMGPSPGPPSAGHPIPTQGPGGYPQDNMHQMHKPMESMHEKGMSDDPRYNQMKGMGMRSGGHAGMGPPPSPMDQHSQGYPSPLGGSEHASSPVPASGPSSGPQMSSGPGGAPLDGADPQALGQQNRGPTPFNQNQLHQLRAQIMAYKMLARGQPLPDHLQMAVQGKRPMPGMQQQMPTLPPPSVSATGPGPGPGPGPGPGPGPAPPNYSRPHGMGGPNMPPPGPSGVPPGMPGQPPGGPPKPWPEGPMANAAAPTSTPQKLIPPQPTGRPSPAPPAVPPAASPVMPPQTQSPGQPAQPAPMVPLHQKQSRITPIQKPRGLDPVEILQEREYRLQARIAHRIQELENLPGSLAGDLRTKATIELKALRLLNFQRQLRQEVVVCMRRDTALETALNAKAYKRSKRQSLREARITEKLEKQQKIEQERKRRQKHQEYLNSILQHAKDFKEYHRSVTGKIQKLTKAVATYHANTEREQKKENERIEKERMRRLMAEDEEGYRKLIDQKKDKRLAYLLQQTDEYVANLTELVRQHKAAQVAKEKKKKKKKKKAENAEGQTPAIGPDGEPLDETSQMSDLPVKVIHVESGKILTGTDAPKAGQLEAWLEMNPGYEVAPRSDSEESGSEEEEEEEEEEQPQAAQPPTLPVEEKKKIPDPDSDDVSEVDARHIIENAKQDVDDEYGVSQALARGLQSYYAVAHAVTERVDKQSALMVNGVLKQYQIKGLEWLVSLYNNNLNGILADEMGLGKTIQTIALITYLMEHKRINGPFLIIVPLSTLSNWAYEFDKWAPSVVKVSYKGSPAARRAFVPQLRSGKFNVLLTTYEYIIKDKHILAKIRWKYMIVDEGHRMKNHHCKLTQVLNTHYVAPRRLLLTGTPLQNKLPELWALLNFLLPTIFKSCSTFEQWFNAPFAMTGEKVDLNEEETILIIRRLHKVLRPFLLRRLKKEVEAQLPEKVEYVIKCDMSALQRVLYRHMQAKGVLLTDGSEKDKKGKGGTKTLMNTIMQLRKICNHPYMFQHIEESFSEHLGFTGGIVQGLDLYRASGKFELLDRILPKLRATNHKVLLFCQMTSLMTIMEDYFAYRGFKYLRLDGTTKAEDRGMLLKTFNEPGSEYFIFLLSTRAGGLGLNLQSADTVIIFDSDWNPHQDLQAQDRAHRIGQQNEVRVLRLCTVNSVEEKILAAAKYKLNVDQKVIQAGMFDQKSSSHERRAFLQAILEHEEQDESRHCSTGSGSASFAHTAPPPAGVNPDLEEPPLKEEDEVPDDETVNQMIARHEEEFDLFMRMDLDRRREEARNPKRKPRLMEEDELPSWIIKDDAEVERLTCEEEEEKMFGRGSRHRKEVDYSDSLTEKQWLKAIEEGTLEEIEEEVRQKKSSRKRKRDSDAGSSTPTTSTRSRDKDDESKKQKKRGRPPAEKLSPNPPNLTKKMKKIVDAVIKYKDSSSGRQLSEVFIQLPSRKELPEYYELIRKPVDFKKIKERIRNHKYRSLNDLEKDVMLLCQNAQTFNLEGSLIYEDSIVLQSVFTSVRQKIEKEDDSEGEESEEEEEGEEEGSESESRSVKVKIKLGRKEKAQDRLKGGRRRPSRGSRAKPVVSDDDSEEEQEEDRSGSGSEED
# Outline: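 Stable HeLa line expressing HiBiT-BRG1 and LgBiT, seeded at 5000 cells/well; luminescence read after lytic Nano-Glo HiBiT reagent and 10 min shaking at RT. % degradation normalised between DMSO (high control) and 2 μM reference BRM/BRG1 degrader (low control).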
SMILES,DC50 (HiBit-BRM fusion protein),BRM HiBit Degradation Maximum measured (HiBit-BRM fusion protein),DC50 [1],Dmax [1]
"CS(=O)(=O)n1ccc(C(=O)N[C@@H](COCc2ccc(C(=O)NCCOCc3cccc(COCCOc4ccc5c(c4)C(=O)N(C4CCC(=O)NC4=O)C5=O)c3)cc2)C(=O)Nc2nc(-c3ccccc3)cs2)c1 (stereo partly drawn) [Compound 237, N-[2-([3-[(2-[[2-(2,6-dioxopiperidin-3-yl)-1,3-dioxoisoindol-5-yl]oxy]ethoxy)methyl]phenyl]methoxy)ethyl]-4-[[(2S)-2-[(1-methanesulfonylpyrrol-3-yl)formamido]-2-[(4-phenyl-1,3-thiazol-2-yl)carbamoyl]ethoxy]methyl]benzamide]",100 to 1000 nM,B (‘B’ = Maximum degradation ≥50% and ≤75%),100 to 1000 nM,50 to 75%
"CS(=O)(=O)n1ccc(C(=O)N[C@@H](COCc2ccc(C(=O)N3CC(CCOc4cccc5c4C(=O)N(C4CCC(=O)NC4=O)C5=O)C3)cc2)C(=O)Nc2nc(-c3ccccc3)cs2)c1 (stereo partly drawn) [Compound 238, (2S)-3-([4-[3-(2-[[2-(2,6-dioxopiperidin-3-yl)-1,3-dioxoisoindol-4-yl]oxy]ethyl)azetidine-1-carbonyl]phenyl]methoxy)-2-[(1-methanesulfonylpyrrol-3-yl)formamido]-N-(4-phenyl-1,3-thiazol-2-yl)propanamide]",> 10000 nM,C (‘C’ = Maximum degradation <50%),> 10000 nM,< 50%
"CS(=O)(=O)n1ccc(C(=O)N[C@@H](COCc2ccc(C(=O)N3CCN(CCCC#Cc4ccc5c(c4)C(=O)N(C4CCC(=O)NC4=O)C5=O)CC3)cc2)C(=O)Nc2nc(-c3ccccc3)cs2)c1.O=CO (stereo partly drawn) [Compound 239, (2S)-3-[[4-(4-[5-[2-(2,6-dioxopiperidin-3-yl)-1,3-dioxoisoindol-5-yl]pent-4-yn-1-yl]piperazine-1-carbonyl)phenyl]methoxy]-2-[(1-methanesulfonylpyrrol-3-yl)formamido]-N-(4-phenyl-1,3-thiazol-2-yl)propanamide; formic acid]",> 10000 nM,C (‘C’ = Maximum degradation <50%),> 10000 nM,< 50%
"CS(=O)(=O)n1ccc(C(=O)N[C@@H](COCc2ccc(C(=O)NCCNc3ccc4c(c3)C(=O)N(C3CCC(=O)NC3=O)C4=O)cc2)C(=O)Nc2nc(-c3ccccc3)cs2)c1 (stereo partly drawn) [Compound 240, N-(2-[[2-(2,6-dioxopiperidin-3-yl)-1,3-dioxoisoindol-5-yl]amino]ethyl)-4-[[(2S)-2-[(1-methanesulfonylpyrrol-3-yl)formamido]-2-[(4-phenyl-1,3-thiazol-2-yl)carbamoyl]ethoxy]methyl]benzamide]",> 10000 nM,C (‘C’ = Maximum degradation <50%),> 10000 nM,< 50%
CS(=O)(=O)n1ccc(C(=O)N[C@@H](COCc2ccc(C(=O)NCCCCNc3ccc4c(c3)C(=O)N(C3CCC(=O)NC3=O)C4=O)cc2)C(=O)Nc2nc(-c3ccccc3)cs2)c1 (some centres unmarked) [Compound 242],100 to 1000 nM,B (‘B’ = Maximum degradation ≥50% and ≤75%),100 to 1000 nM,50 to 75%
"CS(=O)(=O)n1ccc(C(=O)N[C@@H](COCc2ccc(C(=O)NCCCCCNc3ccc4c(c3)C(=O)N(C3CCC(=O)NC3=O)C4=O)cc2)C(=O)Nc2nc(-c3ccccc3)cs2)c1 (stereo partly drawn) [Compound 243, N-(5-[[2-(2,6-dioxopiperidin-3-yl)-1,3-dioxoisoindol-5-yl]amino]pentyl)-4-[[(2S)-2-[(1-methanesulfonylpyrrol-3-yl)formamido]-2-[(4-phenyl-1,3-thiazol-2-yl)carbamoyl]ethoxy]methyl]benzamide]",100 to 1000 nM,B (‘B’ = Maximum degradation ≥50% and ≤75%),100 to 1000 nM,> 75%
"CN(CCNC(=O)c1ccc(COCC(NC(=O)c2ccn(S(C)(=O)=O)c2)C(=O)Nc2nc(-c3ccccc3)cs2)cc1)CCNc1cccc2c1C(=O)N(C1CCC(=O)NC1=O)C2=O [Compound 244, (N-[2-[(2-[[2-(2,6-dioxopiperidin-3-yl)-1,3-dioxoisoindol-4-yl]amino]ethyl)(methyl)amino]ethyl]-4-[[(2S)-2-[(1-methanesulfonylpyrrol-3-yl)formamido]-2-[(4-phenyl-1,3-thiazol-2-yl)carbamoyl]ethoxy]methyl]benzamide]",> 10000 nM,C (‘C’ = Maximum degradation <50%),> 10000 nM,< 50%
"CS(=O)(=O)n1ccc(C(=O)N[C@@H](COCc2ccc(C(=O)NCCC3CCN(c4ccc5c(c4)C(=O)N(C4CCC(=O)NC4=O)C5=O)CC3)cc2)C(=O)Nc2nc(-c3ccccc3)cs2)c1 (stereo partly drawn) [Compound 245, N-(2-[1-[2-(2,6-dioxopiperidin-3-yl)-1,3-dioxoisoindol-5-yl]piperidin-4-yl]ethyl)-4-[[(2S)-2-[(1-methanesulfonylpyrrol-3-yl)formamido]-2-[(4-phenyl-1,3-thiazol-2-yl)carbamoyl]ethoxy]methyl]benzamide]",< 100 nM,A (‘A’ = Maximum degradation >75%),< 100 nM,> 75%
"CS(=O)(=O)n1ccc(C(=O)N[C@@H](COCc2ccc(C(=O)NCCOC3CN(c4ccc5c(c4)C(=O)N(C4CCC(=O)NC4=O)C5=O)C3)cc2)C(=O)Nc2nc(-c3ccccc3)cs2)c1 (stereo partly drawn) [Compound 246, N-[2-([1-[2-(2,6-dioxopiperidin-3-yl)-1,3-dioxoisoindol-5-yl]azetidin-3-yl]oxy)ethyl]-4-[[(2S)-2-[(1-methanesulfonylpyrrol-3-yl)formamido]-2-[(4-phenyl-1,3-thiazol-2-yl)carbamoyl]ethoxy]methyl]benzamide]",100 to 1000 nM,B (‘B’ = Maximum degradation ≥50% and ≤75%),100 to 1000 nM,> 75%
"CS(=O)(=O)n1ccc(C(=O)N[C@@H](COCc2ccc(C(=O)NC3CCN(CCOc4ccc5c(c4)C(=O)N(C4CCC(=O)NC4=O)C5=O)CC3)cc2)C(=O)Nc2nc(-c3ccccc3)cs2)c1 (stereo partly drawn) [Compound 247, N-[1-(2-[[2-(2,6-dioxopiperidin-3-yl)-1,3-dioxoisoindol-5-yl]oxy]ethyl)piperidin-4-yl]-4-[[(2S)-2-[(1-methanesulfonylpyrrol-3-yl)formamido]-2-[(4-phenyl-1,3-thiazol-2-yl)carbamoyl]ethoxy]methyl]benzamide]",100 to 1000 nM,A (‘A’ = Maximum degradation >75%),100 to 1000 nM,> 75%
"CS(=O)(=O)n1ccc(C(=O)N[C@@H](COCc2ccc(C(=O)NCCCCS(=O)(=O)CCCNc3cccc4c3C(=O)N(C3CCC(=O)NC3=O)C4=O)cc2)C(=O)Nc2nc(-c3ccccc3)cs2)c1 (stereo partly drawn) [Compound 248, N-[4-(3-[[2-(2,6-dioxopiperidin-3-yl)-1,3-dioxoisoindol-4-yl]amino]propanesulfonyl)butyl]-4-[[(2S)-2-[(1-methanesulfonylpyrrol-3-yl)formamido]-2-[(4-phenyl-1,3-thiazol-2-yl)carbamoyl]ethoxy]methyl]benzamide]",1000 to 10000 nM,B (‘B’ = Maximum degradation ≥50% and ≤75%),100 to 1000 nM,50 to 75%
